Data published in patent US20250248393A1, “METHOD OF RELEASING A SEMIOCHEMICAL IN THE ENVIRONEMENT BY PASSIVE DIFFUSION, SYSTEM AND MEANS, ESPECIALLY STICKS, TO THIS END, AND USES THEREOF” (SIGNS, priority 2024, published 2025).

Legend:
Type in all cases: physicochemical
[1] = Ratios of molecules diffused through the sticks over time
Procedure: Furthermore, as small molecules diffuse more, it happens that they lose intensity over the course of the study, so the ratios are different 24 hours after immersing the sticks in the liquid and 21 days later. Here are the ratios for each pheromone studied at the start of the study and at the end.

[2] = F3 migration along the stick (top 1 cm, GC/MS); conditions: F3, five sticks
Procedure: Three devices containing 40 mL of F3 feline facial pheromone product and five […] sticks were prepared and left on diffusion. A t=1 day, T=3 days, T=10 days, T=15 days and T=22 days after preparation of the devices, one stick was taken on each device and 1 cm of the top of each stick was cut, then extracted with acetone 1 h in an ultrasonic bath and analysed by gas chromatography coupled with mass spectrometry (GC/MS). The same analytical parameters were used for the study C with a liquid injection (injected quantity: […]) Blank analysis and matrix blank analysis were also performed.

[3] = Indirect assay of rod diffuser solution (GC/FID); conditions: stick diffuser solution, despecified pheromone
Procedure: Solution integrity was checked at each analysis time. Before each indirect assay, the vial was weighed to visualize mass loss over time. Each vial contained six sticks. • Specifications: the solution must lose mass over time. • Result: Compliant—See FIG. 9 This is the same analytical method as for the diffuser block study, only the sample preparation differs. 1.25 g of solution were weighed into a 25 mL volumetric flask and the volume made up to the mark with acetone. The resulting solution is transferred to a 1.5 mL GC vial for analysis. This is exactly the same calibration range as for the diffuser block study.

[4] = DAP PCDS direct diffusion (SPME-GC/MS); conditions: DAP/PCDS diffuser, 40 mL, 6 capillaries
Procedure: Three diffusers, each containing 40 mL of solution and 6 capillaries, were prepared and diffused. The first points were measured at T=1d, T=2, and T=3d, then every Monday, Wednesday and Friday of each study week until the diffusers no longer contained any solution. To measure the pheromone released into the air at each study time, the diffuser is first weighed (with the sticks) to measure mass loss, then placed in an enclosed area (in this case, an upside-down aquarium) containing a SPME fiber, as shown in FIG. 24.
The fiber is left to diffuse above the diffuser for 2 hours (a time determined in a previous method development as the optimum time for molecules to adsorb to the phase), then analyzed using the gas chromatography/mass spectrometry (GC/MS) technique.
Three diffusers were studied for greater accuracy. The chromatograms obtained are reprocessed using GC/MS Solution software.
For each chromatographic peak, the area is recorded using GC/MS Solution software, then entered into an Excel spreadsheet. Diffusion curves giving the area of the chromatographic peak corresponding to each active ingredient as a function of time are then plotted.
Analyses were carried out by gas chromatography/mass spectrometry (GC/MS). The instrument was a Shimadzu GCMS QP2010SE® equipped with an AOC 6000® autosampler. Separation was carried out on a ZB-FFAP® column (30 m×0.25 mm×0.25 μm, stationary phase: nitroterephthalic acid-modified polyethylene glycol) supplied by Phenomenex. The furnace temperature was initially set at 80° C. for 1 minute, then increased at 10° C./min to 240° C. and maintained at this temperature for 2 minutes. The carrier gas was helium at a flow rate of 1 mL/min. Analysis time is 19 minutes.
The injector is a split/splitless injector used in split mode (temperature: 250° C., split: 50:1). The SPME fiber was injected directly into the injector and left to desorb for 15 minutes.
The separated molecules were detected using a mass spectrometer equipped with an electron impact source (temperature: 200° C.). The analyzer is a simple quadrupole. The interface temperature is 250° C. Data were acquired in FASST mode (Fast automated SCAN/SIM type), i.e. part of the analysis was performed by scanning all ions (SCAN) and part by selecting specific ions (SIM). Target molecules were thus analyzed using ion selection.

[5] = Direct diffusion of diffuser blocks (SPME GC/MS); conditions: despecified pheromone 2%, 4 weeks
Procedure: Analyses were carried out using gas chromatography (GC) coupled to a mass spectrometer (MS) detector, a technique commonly referred to as GCMS. The molecules of interest were extracted using the Solid Phase Micro-Extraction (SPME) technique. The instrument used was the following: QP2010SE® from Shimadzu (See FIG. 4).
AOC 6000® automatic feeder • Extraction/SPME fiber: polyacrylate/Fused silica (85 μm), 23 Ga. • Adsorption time: 2 hours (exposure time of fiber above block) (See FIG. 4) • Desorption time: 30 minutes (fiber exposure time in injector) • Fiber-block distance: 2 cm • Injection: split/splitless injector • Temperature: 250° C., split 50 mode. • Separation: ZB-FFAP® column (Phénomenex), length: 30 m, diameter: 250 μm, film thickness: […]
• Carrier gas: Helium (He) • Analysis time: 18 min (not including time to return to equilibrium between each analysis injection • Detection: mass spectrometer with electron impact source/analyzer: quadrupole. • Source temperature: 200° C. • Interface temperature: 250° C. • Scan m/z 50 to m/z 500 • SIM with ions 55, 66 and 74.
Analyses were carried out in triplicate to verify reproducibility of results.
With the SPME method, results are evaluated by measuring the chromatographic peak area. The data have been plotted on diffusion curve (see FIGS. 5 and 6).

[6] = DAP, 24 h after immersion of sticks
[7] = DAP, 21 days after immersion of sticks (empty tank)
[8] = Despecified pheromone (Core), 5 days after immersion of the sticks
[9] = Despecified pheromone (Core), 21 days after immersion of sticks (empty tank)
[10] = F3, 24 h after immersion of sticks
[11] = F3, 21 days after immersion of sticks (empty tank)
[12] = F3P, 24 h after immersion of the sticks
[13] = F3P, 21 days after immersion of sticks (empty tank)

| Compound | ratio of molecules diffused through the sticks [1, 6] | ratio of molecules diffused through the sticks [1, 7] | ratio of molecules diffused through the sticks [1, 8] | ratio of molecules diffused through the sticks [1, 9] | ratio of molecules diffused through the sticks [1, 10] | ratio of molecules diffused through the sticks [1, 11] | ratio of molecules diffused through the sticks [1, 12] | ratio of molecules diffused through the sticks [1, 13] | quantity on the top of the stick over time [2] | % of the active ingredient in the pheromone ([3]; day 0) [%] | % of the active ingredient in the pheromone ([3]; day 7) [%] | % of the active ingredient in the pheromone ([3]; day 14) [%] | % of the active ingredient in the pheromone ([3]; day 21) [%] | direct diffusion over time [4] | direct diffusion from the diffuser block [5] | relative quantity on the top of the stick [2] |
| --- | --- | --- | --- | --- | --- | --- | --- | --- | --- | --- | --- | --- | --- | --- | --- | --- |
| CCCCCCCCCCCCCCCC(=O)OC [methyl palmitate, methyl hexadecanoate] | 9.5 % (w/w) | 12 % (w/w) | 19 % (w/w) | 22 % (w/w) | 3 % (w/w) | 5 % (w/w) | 1 % (w/w) | 3.4 % (w/w) | more pronounced increase of their quantities over time | 27.3 | 27.3 | 27.2 | 26.2 | slight increase over time | diffuse better | – |
| CCCCCCCC/C=C\CCCCCCCC(=O)OC [methyl oleate, methyl (Z)-octadec-9-enoate] | 2 % (w/w) | 3.5 % (w/w) | 3 % (w/w) | 4 % (w/w) | 2 % (w/w) | 4 % (w/w) | 0.6 % (w/w) | 2 % (w/w) | more pronounced increase of their quantities over time | 30.8 | 30.8 | 30.7 | 30.8 | slight increase over time | lowest intensity | major compound found on the top of the stick |
